Assay results as given in patent publication US5614370A, “Assay to identify human C5a antagonists and agonists” (Merck & Co., Inc., priority 1994, dated 1997).
Non-standard residues stand in square brackets, D forms with d. Residues, ends and D or L forms follow the SMILES beside them. No end group written: not given here. NMeF = CN[C@@H](Cc1ccccc1)C(=O)O; Cha = N[C@@H](CC1CCCCC1)C(=O)O; dCha = N[C@H](CC1CCCCC1)C(=O)O

Assays:
C5a receptor [1] = molecular target: T1, C5a receptor (Homo sapiens, UniProt P21730); assay: Competition binding against 125I-labeled intact C5a on human neutrophil (PMN) membranes
T1 construct: followed by a 20 μL aliquot of neutrophil membrane; endogenous in cells
T1 sequence (P21730 1-350): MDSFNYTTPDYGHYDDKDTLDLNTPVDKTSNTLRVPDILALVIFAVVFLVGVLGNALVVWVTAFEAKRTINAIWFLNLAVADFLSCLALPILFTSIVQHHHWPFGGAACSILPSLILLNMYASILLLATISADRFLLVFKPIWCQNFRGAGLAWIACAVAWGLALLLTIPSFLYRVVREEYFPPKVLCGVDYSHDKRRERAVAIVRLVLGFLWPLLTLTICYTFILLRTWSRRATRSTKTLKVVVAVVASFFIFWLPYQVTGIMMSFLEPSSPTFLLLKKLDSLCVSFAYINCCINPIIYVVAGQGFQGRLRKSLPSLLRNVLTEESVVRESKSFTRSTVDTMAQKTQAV
Text: The affinity of these peptides is shown, for example, by radiolabeling intact C5a, and using the unlabeled peptide to compete the labeled C5a from C5a receptor binding sites on cellular membranes. Preparations of polymorphonuclear leukocytes (PMN's) are known to express the C5a receptor, (inhibition of the chemotactic response to C5a of this type of cell is one desirable utility for compounds identified by the instant assay). One method for preparing these membranes is described by Rollins, T. E. et al., [J. Biol. Chem. 264:520-526 (1988); see also U.S. Pat. No. 5,177,190, herein incorporated by reference as a method for isolating and purifying C5a receptor]. Briefly, this involves isolating PMN's in large quantity, disrupting these cells and obtaining the membrane fraction by centrifugation. Protein assay of the membrane preparation allows for standardization of the amount of protein added in any set of membrane binding experiments.
(§1) In FIG. 1, unlabeled C013 is used to compete with ^125 I-labeled C5a. […] In FIG. 2, the C013 is ^125 I labeled. Unlabeled C5a and unlabeled C013 are each used to compete the labeled C013 from C5a binding sites on the membranes. […] In FIG. 3a, ^125 I-C5a is competed from its binding site by unlabeled C064 and unlabeled, natural C5a (as opposed to recombinant C5a, which, however, may also obviously may be used for these purposes). […] In FIG. 3b, the inverse experiment is shown, wherein ^125 I-C064 is displaced by unlabeled C064 and unlabeled nC5a.
Hexapeptides within this class differing only at position X have similar affinities for the C5a receptor. As measured in competition binding experiments against ^125 I-C5a on human neutrophil membranes their IC50 's varied by only a factor of 3, from 25 to 80 nM (Table II):
^2 Binding experiments were carried out with human neutrophil
Binding is initiated by an addition of 20 μL of PMN membrane (typically 0.5 μg of protein) to each tube. After incubation for 90 min. at room temperature 2 ml of 0.05 M HEPES, pH 7.2, containing 0.5% BSA are added to the tube, the contents vortexed and filtered over a Whatman GF/C filter which has been soaked in 0.3% polyethylenimine. An additional 2 ml of buffer are added to the tube and used to wash the filter. All of the test samples are dissolved in DMSO, another water miscible organic solvent, or in an aqueous solvent. Non-specific background was determined by inclusion of a 100-fold excess of unlabeled C5a.
The percent inhibition is calculated according to the following formula: [formula]
Iodination of C5a was carded out with the use of chloramine T. (Rollins, T.E., and Springer, M.S. (1985) J. Biol. Chem. 260, 7157-7160). […] Concentrations of C5a were determined by amino acid analysis and by RIA (Amersham Corp.). Membranes were prepared from human PMN as described by Rollins, T.E., Sciliano, S and Springer, M.S., J. Biol Chem 264 520-526 (1988).

C5a receptor [2] = molecular target: T1, C5a receptor; assay: biochemical; format: binding; settings: for IC50: read-out: IC50 exhibited by the unlabeled ligand
Protocol: Initially, we attempted to conduct binding studies with ^125 I radiolabeled C009: ^125 I-Tyr Phe Lys Ala Cha Cha Leu dPhe Arg, SEQ.ID:1:, wherein Cha is cyclohexylalanine, and dPhe is the D isomer of phenylalanine. This compound is a C5a agonist displaying a Ki for C5a of 8 nM. The presence of the tyrosine allowed us to radioiodinate the peptide and establish a binding assay in which both C5a (IC50=0.1 nM) and unlabeled C009 (IC50 =10 nM) inhibit the binding of ^125 I-C009 with concentration dependencies similar to those obtained from competition experiments against ^125 I-C5a.
as §1
Peptide (5 nMoles) are added to 40μL of 0.1 M sodium phosphate, pH 7.6, in a tube, followed by 2 mCi of ^125 I in 20 μL. 10 μL of a freshly made 0.5 mg/mL solution of chloramine T is then added. After 30 seconds of incubation, 10 μL of a freshly prepared 2 mg/mL solution of Na2 S2 O3 is added, the tube is vortexed, and the sample loaded onto a Vydac C4 reverse phase column. The column is developed with a TFA/acetonitrile gradient and the iodinated peptide is isolated. The material is stored at 4° C. in the elution buffer.
To 205 μL binding buffer (50 mM HEPES, pH 7.2, containing 5 mM MgCl2, 1mM CaCl2, 0.5% BSA) in a polypropylene tube is added 30,000CPM of the ^125 I peptide in 20 μL, and 5 μL of a known dilution of the test compound or diluent, followed by a 20 μL aliquot of neutrophil membrane [equivalent to 500,000 neutrophils; Rollins, T.E. et al., J. Biol Chem. 260:7157 (1985); see also U.S. Pat. No. 5,177,190, herein incorporated by reference].
The assay mixture is incubated for 2 hours at 29° C. Binding buffer (2 mL) is then added, the tube is vortexed, and the contents filtered over a Wattmann GF/C filter soaked in 0.33% polyethylenimine. An additional aliquot of binding buffer (2 mL) is added to the tube to rinse the tube, and is then used to wash the filter. The filters are removed from the apparatus and counted. Non-specific backgrounds are determined by performing assays in the presence of either 10 nM C5a, or 1 μM unlabeled peptide. Compounds which inhibit the binding of the labeled peptide are considered to be potential active compounds.

human neutrophils [3] = assay: Degranulation, myeloperoxidase (MPO) release from human neutrophils (agonism); format: cell-based
Protocol: (§2) FIG. 5A and 5B. Degranulation and Ca^2+ responses to the hexapeptides. […] The ED50 's for the degranulation are: C5a, 0.5 nM; C028, 0.2 μM; C026, 1 μM. C5a, maximally, released 57% of the total cellular content of MPO. The ability of these molecules to elicite a Ca^2+ -flux is shown in B. The concentrations used for C028 (10 μM), C026 (10 μM), C061 (100 μM) are those which produce a maximal flux. A saturating concentration was also used for C5a (1 nM).
(§3) This assay was performed on human neutrophils as previously reported and it is a measure of C5a or peptide induced exocytosis (Rollins, T. E. and Springer, M. S. (1985) J. Biol. Chem. 260, 7157-7160).
The functional properties of two of the peptides, C026, and C028, were originally described by Mollison et. al (Mollison, K. W., Krause, R. A., Fey, T. A., Miller, L., Wiedeman, P. e., Kawai, M., Lane, B., Luly, J. R. and Carter, G. W. (1992) FASEB J. 6, A2058). […] We have reinvestigated the degranulating activities of these peptides as measured by the release of myeloperoxidase (MPO) from human neutrophils. […] The EC50 /IC50 (degranulation/binding) for C028 is 8, the same as that measured for C5a (Table II, FIG. 5A). […] However, the difference in activity between C026 and C028 is significant and reproducible. Since the structural difference between the two is the substitution of an aromatic for an aliphatic residue (Phe for Cha) we chose to make additional changes at position 5 which further increased aromaticity. […] To further examine whether the differences in activity between the peptides reflects the increased aromaticity we synthesized a molecule with Leu, an aliphatic amino acid, at position 5 (C068, Table II).

C5a receptor [4] = molecular target: T1, C5a receptor; assay: Agonist activity over all C5a induced responses (chemotaxis, MPO release, calcium flux, GTPase activity, GTPγ-S binding); format: cell-based; settings: C089 tested up to and including 100 μM
Protocol: The EC50 measures the concentration of compound at which a 50% maximal stimulation of a given biological response induced by C5a is achieved (chemotaxis, MPO release, calcium flux, GTPase activity or GTPγ-S binding), and the IC50 is the concentration at which 50% maximal inhibition of C5a binding is achieved.
as §3
(§4) Ligand induced Ca^2+ fluxes were measured by following the change in Indo-1 induced fluorescence on a FACS analyzer as previously described (Van Riper, G., Siciliano, S. J., Fischer, P. A., Meurer, R., Springer, M. S. and Rosen, H. (1993) J. Exp. Med. 177, 851-856.).
This assay is a modification of the procedure described by Sims et. al. (Sims, T. J., Geissler, F. T. and Page, R. C. (1985) J. lmmunol. Meth. 78, 279-291 ). Chemotaxis was assayed in a 48 well Neuro Probe chamber (Neuro Probe, Bethesda, MD) using ^51 Cr-labelled cells. […] After preforming a gradient for 30 minutes at 37° C., 2×10^5 labelled cells were added to the upper chamber and allowed to migrate at 37° C. for one hour. The upper two polycarbonate filters were then discarded and the formed wells cut from the nitrocellulose membrane. The radioactivity present in these filters is a measure of the number of cells that migrated through both polycarbonate filters.
The method of Kupper et al. (Kupper, R. W., Dewald, B., Jakobs, K. H., Baggiolini, M. and Gierschik, P. (1992) Biochem. J. 282, 429-434) was adapted for use in microtiter plates. Neutrophil membranes were suspended in 50 mM triethanolamine-HCl, 5 mM MES, pH 7.3, containing 1 mM EDTA, 5 mM MgCl2, 143 mM NaCl, 0.16 % BSA, 1 mM ouabain, 1 mM AMP-PNP, 0.5 mM ATP, 2.5 U/mL creatine phosphokinase,. 10 mM creatine phosphate, 0.1 mM PMSF and 10 ng/mL each of leupeptin, aprotinin and chymostatin. 50 μL of membranes containing 1-5 μg protein were added to 50 μL of the same buffer containing the test agent and 0.25 μM [γ-^32 P]-GTP (2,000 cpm/pmol) in the wells of a U-shaped microtiter plate. After incubation for 15-30 rain at 29° C., 100 μL of a 10% (w/v) charcoal suspension in 100 mM H3 PO4 was added and plates were centrifuged at 2000 rpm for 5 min. 100 μL of the supernatant was transferred to an Optiplate microtiter plate and 100 μL of Microscint-40 scintillation cocktail was added. Plates were counted in a Packard TopCount microtiter plate counter.

human neutrophils [5] = assay: Ligand induced Ca2+ flux (Indo-1 fluorescence); format: cell-based; settings: maximal effects, peptide 10-100 μM vs 1 nM C5a, FIG. 5B
Protocol: as §2, §4
FIG. 5B compares the maximal effects of each peptide (10-100 μM) with the response induced by C5a (1 nM).

[6] = labeled ligand 125I-C5a, read-out: IC50 exhibited by the unlabeled ligand

CC(C)C[C@H](NC(=O)CNC(=O)[C@H](CC1CCCCC1)NC(=O)[C@H](C)NC(=O)[C@H](CCCCN)NC(=O)[C@H](Cc1ccccc1)NC(=O)[C@@H](N)Cc1ccc(O)cc1)C(=O)N[C@H](Cc1ccccc1)C(=O)N[C@@H](CCCNC(=N)N)C(=O)O [C013, Tyr Phe Lys Ala Cha Gly Leu dPhe Arg] (H-YFKA[Cha]GL[dF]R-OH)
IC50 (C5a receptor [1]; [6]): 14 nM | binding affinity relative to 125I-C009 (C5a receptor [2]): about 30 fold | IC50 (C5a receptor [2]; labeled ligand 125I-C013): 1 nM

CN[C@@H](Cc1ccccc1)C(=O)N[C@@H](CCCCN)C(=O)N1CCC[C@H]1C(=O)N[C@H](CC1CCCCC1)C(=O)N[C@@H](CC(C)C)C(=O)N[C@H](CCCNC(=N)N)C(=O)O [C068] (H-[NMeF]KP[dCha]L[dR]-OH)
degranulating activity in words (human neutrophils [3]; FIG. 5A): full agonist, as measured both by maximal release and ED50 /IC50 ratio | agonist activity in words, all responses (C5a receptor [4]): almost complete agonists of all of these responses | IC50 (C5a receptor [1]; Table II, human neutrophil membranes, competition against 125I-C5a, read-out: Binding IC50): 60 nM | Ca2+ response in words (human neutrophils [5]): full agonist in this assay

CSCC[C@H](NC=O)C(=O)N[C@@H](CC(C)C)C(=O)N[C@@H](Cc1ccccc1)C(=O)O [fMLP, N-formyl-methionyl-leucyl-phenylalanine, reference compound]
effect on binding of C5a COOH-terminal peptides in words (C5a receptor [2]; 125I-C009 for fMLP and IL-8, COOH-terminal peptides for L-584,020): neither

IL-8: chemokine IL-8
release of total cellular MPO (human neutrophils [3]; 0.4 nM C5a or 8 nM IL-8, cells without C089): 19%

Tyr Phe Lys Pro dCha Cha dArg (YFKP[dCha][Cha][dR]) [C064, name also used for the 125I-Tyr peptide]
IC50 (C5a receptor [1]; [6]): 8 nM | non-specific binding of the labeled peptide (C5a receptor [2]): low non-specific binding | IC50 (C5a receptor [2]; labeled ligand 125I-C064): 1.5 nM

^125 I-Tyr Phe Lys Ala Cha Cha Leu dPhe Arg [125I-C009]
non-specific binding of the labeled peptide (C5a receptor [2]): high non-specific binding

B1: 125I-C5a: C5a iodinated with chloramine T (100-200 mCi/mg) (protein, UniProt P01031 678-751, looked up)
C5a anaphylatoxin: TLQKKIEEIAAKYKHSVVKKCCYDGACVNNDETCEQRAARISLGPRCIKAFTECCVVASQLRANISHKDMQLGR
modifications: C5a anaphylatoxin 125I label
affinity of radioiodinated C5a in words (C5a receptor [1]; 100-200 mCi/mg): same affinity for the receptor as did the nonderivatized protein
